Assay results reported in US6476030B1, “Pyrazolo-triazine derivatives as ligands for GABA receptors” (Merck Sharp & Dohme Ltd., priority 1998, dated 2002).

Row | melting point [°C] | SMILES
1 | 187 to 193 | CCn1ncnc1COc1nn2c(-c3ccccc3F)nncc2c1-c1ccsc1 [Example 93, 2-(2-Ethyl-2H-[1,2,4]triazol-3-ylmethoxy)-7-(2-fluorophenyl)-3-(thien-3-yl)pyrazolo[1,5-d][1,2,4]triazine]
2 | 157 to 163 | Cn1ncnc1COc1nn2c(-c3ccccc3F)nncc2c1-c1cccc(-c2cccnc2)c1 [Example 95, 7-(2-Fluorophenyl)-2-(2-methyl-2H-[1,2,4]triazol-3-ylmethoxy)-3-[3-(pyridin-3-yl)phenyl]pyrazolo[1,5-d][1,2,4]triazine]
3 | 218 to 219 | Cn1ncnc1COc1nn2c(-c3ccccc3F)nncc2c1I [Example 96, 7-(2-Fluorophenyl)-3-iodo-2-(2-methyl-2H-[1,2,4]triazol-3-ylmethoxy)-pyrazolo[1,5-d][1,2,4]triazine]
4 | 194 to 196 | Cn1ncnc1COc1nn2c(-c3ccccc3F)nncc2c1-c1cccc(C#N)c1 [Example 97, 3-(3-Cyanophenyl)-7-(2-fluorophenyl)-2-(2-methyl-2H-[1,2,4]triazol-3-ylmethoxy)pyrazolo[1,5-d][1,2,4]triazine]
